In patent US20060100190A1, “Motexafin lutetium phototherapy with low fluences for treating vascular inflammation” (Pharmacyclics, Inc., priority 2004, published 2006):

Assays:
[1] = system: Fat-fed New Zealand rabbits; experiment: MLu phototherapy at low light fluence in fat-fed New Zealand rabbits; format: in vivo, rabbit; conditions: PT at 732 nm, low light fluence 30-100 J/cmf
From the text: The methods, compositions, strategies and techniques described herein include processes to treat diffuse inflammation in blood vessels by administering a photo-activatable compound and low light fluence in the range of in the range of about 10 to about 400 Joules/cm of illuminated length in the general vicinity of the inflammation.

[2] = system: Watanabe Heritable Hyperlipidemic (WHHL) rabbits; experiment: MLu phototherapy (732 nm, low fluences) of aortic atheroma in cholesterol-fed WHHL rabbits; format: in vivo, rabbit
From the text: FIG. 1 depicts treated segments of the rabbit aortic tree. In each rabbit, both T1 and T2 segments were about 30 mm in length with another 30 mm of buffer in between. Both T1 and T2 received the same fluence (J/cmf) at different fluence rates (mW/cmf) because T1 illumination period was shorter at 400 seconds compared to 900 seconds for T2.
Thirty 8 months old male Watanabe Heritable Hyperlipidemic (WHHL) rabbits were randomized after 3 weeks of 1% cholesterol feeding to either control or MLu groups (10 mg/kg, iv via ear vein). Intravascular illumination was performed 24 hours post-MLu using a fiber with a 30 mm active diffuser tip to deliver escalating fluences (30-175 J/cmf, 732 nm) for 400 s (upper) and 900 s (lower thoracic/abdominal aorta); control received no light. Rabbits were then switched to a normal diet immediately after phototherapy and sacrificed 3 weeks later. Aortas were harvested and examined for plaque (I/M ratios), Mac (RAM11), smooth muscle cell (myosin) and collagen (Picrosirius Red) changes.

atheroma = conditions: reported; cited from earlier work

For CC(=O)[O-].CC(=O)[O-].CCc1c(CC)c2cc3nc(cnc4cc(OCCOCCOCCOC)c(OCCOCCOCCOC)cc4ncc4nc(cc1[n-]2)C(CCCO)=C4C)C(C)=C3CCCO.O.[Lu+3] [MLu, motexafin lutetium], which “diffuse inflammation in blood vessels (based on decrease in macrophage burden)” value [1] is on record?
The value was “significant reduction in diffuse inflammation”.

What about the macrophages in plaques ([2]; 30-175 J/cmf delivered over 400 s and 900 s) of the same compound?
Its macrophages in plaques is “macrophage depletion”.

What about the macrophage burden ([2]; all tested fluence groups (30-175 J/cmf) vs. control, p<0.05, both T1 and T2 treated segments) of the same compound?
The macrophage burden was “statistical significant reduction in macrophage burden”.

What about the “collagen (picrosirius red, bright-field and polarization microscopy)” value ([2]; treated 30 J/cmf, 400 s vs. control) of the same compound?
Its value is “denser packing of matured collagen”.

What about the “smooth muscle cell (SMC) content, histology of myosin-stained areas” value ([2]; treated 30 J/cmf, 400 s vs. control (non-phototherapy)) of the same compound?
Its value is “did not appear to decrease”.

And the “SMC content (myosin positive areas), planimetry, % of the intima” value ([2]; treated sections, 30 J/cmf, 400 s, control 43.1±3.8%)?
Its value is 50.9±9.7%.

And the “effect on macrophages (Mac) following phototherapy (PT)” value (atheroma)?
The value was “destroys Mac by inducing apoptosis”.
